# Source: publication PMC8312988 (Medicinal chemistry research : an international journal for …, 2015)
# pEC50, pIC50: −log10 of the molar value.
# Legend:
# in vitro = settings: human, CEM cells (lymphoblastic cell line)
# [1] = Cytotoxicity assay, PBM cells; type: cell-based, Human; settings: human
# [2] = Cytotoxicity assay, Vero cells; type: cell-based, African green monkey; settings: African green monkey, Vero cells (kidney)
# PBM cells = test: Cytotoxicity assay, PBM cells; type: cell-based, Human; settings: for pIC50: read-out: Cytotoxicity IC50 PBM, 5-day incubation
# HIV-1 = type: cell-based; settings: for pEC50: read-out: Anti-HIV-1 activity in PBM cells EC50; for EC90: read-out: Anti-HIV-1 activity in PBM cells EC90
# PBM, CEM and Vero cells = test: Cytotoxicity across all cell lines used; type: cell-based
# CEM cells = settings: for pIC50: read-out: Cytotoxicity IC50 CEM, 5-day incubation
# Vero cells = test: Cytotoxicity assay, Vero cells; type: cell-based, African green monkey; settings: read-out: Cytotoxicity IC50 Vero; Vero cells, 5-day incubation
Structure (SMILES),IC50 at 5 day (in vitro),IC50 at 5 day [1],IC50 at 5 day [2],other results
"O=C(CN1c2c(n[nH]c2-c2cccc(Cl)c2)-c2ccccc2S1(=O)=O)NN=Cc1ccc([N+](=O)[O-])cc1 [Compound 5m, 2-[3-(3-Chlorophenyl)-5,5-dioxidobenzo[e]pyrazolo[4,3-c] [1,2]thiazin-4(2H)-yl]-N′-[4-nitrobenzylidene]acetohydrazide]",2.8 µM,16.7 µM,21.2 µM,
"O=C(CN1c2c(n[nH]c2-c2cccc(Cl)c2)-c2ccccc2S1(=O)=O)NN=Cc1cccc([N+](=O)[O-])c1 [Compound 5l, 2-[3-(3-Chlorophenyl)-5,5-dioxidobenzo[e]pyrazolo[4,3-c] [1,2]thiazin-4(2H)-yl]-N′-(3-nitrobenzylidene)acetohydrazide]",47.3 µM,> 100 µM,27 µM,Toxicity in PBM cells (in words) (PBM cells): not toxic
"O=C(CN1c2c(n[nH]c2-c2cccc(Cl)c2)-c2ccccc2S1(=O)=O)NN=Cc1cccc(Cl)c1 [Compound 5b, N′-(3-Chlorobenzylidene)-2-[3-(3-chlorophenyl)-5,5-dioxidobenzo[e]pyrazolo[4,3-c][1,2]thiazin-4(2H)-yl]acetohydrazide]",31.6 µM,36.3 µM,16.4 µM,
"COC(=O)CN1C(C(=O)c2cccc(Cl)c2)=C(O)c2ccccc2S1(=O)=O [Compound 3, Methyl 2-[3-(3-chlorobenzoyl)-4-hydroxy-1,1-dioxido-2H-benzo[e][1,2]thiazin-2-yl]acetate]",22.4 µM,57.3 µM,40.6 µM,
"COc1ccc(C=NNC(=O)CN2c3c(n[nH]c3-c3cccc(Cl)c3)-c3ccccc3S2(=O)=O)c(OC)c1OC [Compound 5i, 2-[3-(3-Chlorophenyl)-5,5-dioxidobenzo[e]pyrazolo[4,3-c] [1,2]thiazin-4(2H)-yl]-N′-(2,3,4-trimethoxybenzylidene) acetohydrazide]",31.6 µM,21.8 µM,29 µM,pEC50 (HIV-1): 5.38
"COc1cc(C=NNC(=O)CN2c3c(n[nH]c3-c3cccc(Cl)c3)-c3ccccc3S2(=O)=O)cc(OC)c1OC [Compound 5j, 2-[3-(3-chlorophenyl)-5,5-dioxidobenzo[e]pyrazolo[4,3-c] [1,2]thiazin-4(2H)-yl]-N′-(3,4,5-trimethoxybenzylidene) acetohydrazide]",31.6 µM,11 µM,14.3 µM,
"O=C(CN1c2c(n[nH]c2-c2cccc(Cl)c2)-c2ccccc2S1(=O)=O)NN=Cc1ccccc1[N+](=O)[O-] [Compound 5k, 2-[3-(3-Chlorophenyl)-5,5-dioxidobenzo[e]pyrazolo[4,3-c] [1,2]thiazin-4(2H)-yl]-N′-(2-nitrobenzylidene)acetohydrazide]",> 100 µM,> 100 µM,> 100 µM,"Anti-HIV-1 activity (in words) (HIV-1): no inhibition; Toxicity to all the cell lines used (in words) (PBM, CEM and Vero cells): no toxicity"
"O=C(CN1c2c(n[nH]c2-c2cccc(Cl)c2)-c2ccccc2S1(=O)=O)NN=Cc1ccc(Br)cc1 [Compound 5e, N′-(4-Bromobenzylidene)-2-(3-(3-chlorophenyl)-5,5-dioxidobenzo[e]pyrazolo[4,3-c][1,2]thiazin-4(2H)-yl)acetohydrazide]",5 µM,66.7 µM,46.5 µM,Toxicity in PBM cells (in words) (PBM cells): not toxic
"O=C(CN1c2c(n[nH]c2-c2cccc(Cl)c2)-c2ccccc2S1(=O)=O)NN=Cc1ccc(C(=O)O)cc1 [Compound 5n, 4-[(2-(2-(3-(3-Chlorophenyl)-5,5-dioxidobenzo[e]pyrazolo [4,3-c][1,2]thiazin-4(2H)-yl)acetyl)hydrazono)methyl]benzoic acid]",13.4 µM,17.2 µM,18.2 µM,
"COc1cccc(C=NNC(=O)CN2c3c(n[nH]c3-c3cccc(Cl)c3)-c3ccccc3S2(=O)=O)c1 [Compound 5h, 2-[3-(3-Chlorophenyl)-5,5-dioxidobenzo[e]pyrazolo[4,3-c] [1,2]thiazin-4(2H)-yl]-N′-(3-methoxybenzylidene)acetohydrazide]",31.6 µM,19 µM,22.3 µM,
"O=C(CN1C(=O)c2ccccc2S1(=O)=O)c1cccc(Cl)c1 [Compound 1, N-3′-Chlorophenacylsaccharine]",,,,pEC50 (HIV-1): < 4.00; EC90 (HIV-1): > 100 µM; pIC50 (CEM cells): < 4.00; pIC50 (PBM cells): < 4.00; pIC50 (Vero cells): 4.26
"O=C(CN1c2c(n[nH]c2-c2cccc(Cl)c2)-c2ccccc2S1(=O)=O)NN=Cc1c(Cl)cccc1Cl [Compound 5g, 2-[3-(3-Chlorophenyl)-5,5-dioxidobenzo[e]pyrazolo[4,3-c] [1,2]thiazin-4(2H)-yl]-N′-(2,6-dichlorobenzylidene)acetohydrazide]",12.5 µM,52.5 µM,60.5 µM,Toxicity to CEM cell line (in words) (CEM cells): toxic to only CEM cell line; Toxicity in PBM cells (in words) (PBM cells): not toxic
"O=C(C1=C(O)c2ccccc2S(=O)(=O)N1)c1cccc(Cl)c1 [Compound 2, (3-chlorophenyl)(4-hydroxy-1,1-dioxido-2H-benzo[e] [1,2]thiazin-3-yl)methanone]",26.7 µM,> 100 µM,> 100 µM,
"O=C(CN1c2c(n[nH]c2-c2cccc(Cl)c2)-c2ccccc2S1(=O)=O)NN=Cc1ccc(F)cc1 [Compound 5a, 2-[3-(3-Chlorophenyl)-5,5-dioxidobenzo[e]pyrazolo[4,3-c] [1,2]thiazin-4(2H)-yl]-N′-(4-fluorobenzylidene)acetohydrazide]",31.6 µM,20 µM,45.7 µM,
"O=C(CN1c2c(n[nH]c2-c2cccc(Cl)c2)-c2ccccc2S1(=O)=O)NN=Cc1ccc(Cl)cc1Cl [Compound 5f, 2-[3-(3-Chlorophenyl)-5,5-dioxidobenzo[e]pyrazolo[4,3-c] [1,2]thiazin-4(2H)-yl]-N′-(2,4-dichlorobenzylidene)acetohydrazide]",13.8 µM,80.7 µM,84.8 µM,Toxicity to CEM cell line (in words) (CEM cells): toxic to only CEM cell line; Toxicity in PBM cells (in words) (PBM cells): not toxic
"CN(C)c1ccc(C=NNC(=O)CN2c3c(n[nH]c3-c3cccc(Cl)c3)-c3ccccc3S2(=O)=O)cc1 [Compound 5o, 2-[3-(3-Chlorophenyl)-5,5-dioxidobenzo[e]pyrazolo[4,3-c] [1,2]thiazin-4(2H)-yl]-N′-[4-(dimethylamino)benzylidene] acetohydrazide]",2.5 µM,23.7 µM,10.4 µM,
NNC(=O)CN1c2c(n[nH]c2-c2cccc(Cl)c2)-c2ccccc2S1(=O)=O [Compound 4],,,,"Anti-HIV-1 activity (in words) (HIV-1): inactive; pEC50 (HIV-1): < 4.00; EC90 (HIV-1): > 100 µM; pIC50 (CEM cells): < 4.00; pIC50 (PBM cells): < 4.00; Toxicity to all the cell lines used (in words) (PBM, CEM and Vero cells): nontoxic; pIC50 (Vero cells): < 4.00"
"O=C(CN1c2c(n[nH]c2-c2cccc(Cl)c2)-c2ccccc2S1(=O)=O)NN=Cc1ccc(Cl)cc1 [Compound 5c, N′-(4-Chlorobenzylidene)-2-[3-(3-chlorophenyl)-5,5-dioxidobenzo[e]pyrazolo[4,3-c][1,2]thiazin-4(2H)-yl]acetohydrazide]",2.5 µM,12.8 µM,19.2 µM,"pEC50 (HIV-1): 5.40; Toxicity to all the cell lines used (in words) (PBM, CEM and Vero cells): highly toxic"
"O=C(CN1c2c(n[nH]c2-c2cccc(Cl)c2)-c2ccccc2S1(=O)=O)NN=Cc1cccc(Br)c1 [Compound 5d, N′-(3-Bromobenzylidene)-2-[3-(3-chlorophenyl)-5,5-dioxidobenzo[e]pyrazolo[4,3-c][1,2]thiazin-4(2H)-yl]acetohydrazide]",12.9 µM,22.9 µM,> 100 µM,
